Tests used:
HSV-1 [1] = experiment: HSV-1 viral protein synthesis in infected H-ras transformed NIH-3T3 cells, Western blot with rabbit anti-HSV-1 antibody; type: cell-based, HSV-1 (strain F); settings: for production of viral proteins / HSV-1 infection / infectivity (summary statement): H-ras transformed NIH-3T3 cells; for production of viral proteins: 22 hours post-infection
Experimental: (§1) Western blot (Immunoblot) analysisinfected cells were lysed with the single detergent lysis buffer [50 mM Tris (pH 8.0), 150 mM NaCI, 0.02% sodium azide, 100 μg/ml phenylmethy-sulfonyl fluoride, 1 μg/ml aprotinin, and 1% Triton X-100], normalized for the amount of total protein and subjected to SDS-PAGE, followed by electroblotting onto nitrocellulose paper. The membrane was then washed and incubated with the primary antibody [rabbit antibody against all HSV-1 antigens (Dako, CA.; 1:20,000); mouse anti-ICP27 or anti-gC antibody (Rumbaugh-Goodwin Institute, FL; 1:1,000); rabbit anti-ICP8 antibody (from Dr. Paul Olivo, Washington University, St. Louis; 1:1,000); mouse anti-PKR and mouse anti-eIF-2 α antibody (Santa Cruz; 1:1,000); rabbit anti-phospho-PKR and rabbit antiphospho-eIF-2 α antibody (Biosource, CA; 1:1,000) followed by HRP-conjugated secondary antibody (1:2,000). After extensive washing, the blot was exposed to Lumigel detection solution (New England Biolabs) and subjected to autoradiography.
H-ras transformed NIH-3T3 cells were exposed to the farnesyl transferase inhibitors FTI-1 at a final concentration 50 μM or 100 μM in the culture medium. Control cells were not exposed to inhibitor. At 22 hours post-infection the cells were harvested and Western blot analysis was performed on these samples using rabbit anti-HSV-1 antibody, as described above.
To determine whether other inhibitors of farnesyl transferase would have the same effect on viral protein synthesis, three additional inhibitors were tested. H-ras transformed NIH-3T3 cells were exposed to the farnesyl transferase inhibitors FPTI-1, FPTI-2 and FTI-4 at a final concentration 150 μM, 150 μM or or 50 μM in the culture medium. Control cells were not exposed to inhibitor. At 22 hours postinfection the cells were harvested and Western blot analysis was performed on these samples using rabbit anti-HSV-1 antibody, as described above.
HSV-1 infected H-ras transformed NIH-3T3 cells were exposed to 40 μM PD98059 in the culture medium. Control cells (HSV-1 infected) were not exposed to PD98059. At 22 hours post-infection, the cells were harvested and Western blot analysis was performed on these samples using rabbit anti-HSV antibody, as described above.
P-13 Kinase Pathway is Not Involved in HSV-1 InfectionH-ras cells that were infected with HSV-1 were exposed to Wortmannin at a final concentration of 200 nM for the entire duration of the infection. Cells were harvested at 22 hr. post infection, lysed and subjected to SDS PAGE followed by immunoblotting with a rabbit anti-HSV-1 antibody.

[2] = test system: ERK1/2 (Erk42/44) phosphorylation; experiment: ERK1/2 phosphorylation in H-ras cells, Western blot; type: cell-based, murine
Text: (§2) Briefly, subconfluent monolayer cultures were lysed with the recommended SDS-containing sample buffer, the lysate was subjected to SDS-PAGE and electroblotted onto nitrocellulose paper. Blots were probed with anti-ERK1/2 or anti-phospho-ERK1/2 antibodies (for samples treated with FTI-1 or PD98059), anti-ATF-2 or anti-phospho-ATF-2 (for samples treated with SB203580), and anti-Akt and anti-phospho-Akt (for samples treated with Wortmannin). The antibody kits were purchased from New England Biolabs (MA). FTI-1, PD98059, SB203580 and Wortmannin were purchased from Calbiochem (CA).

HSV-1 [3] = experiment: Immunofluorescence of HSV-1-infected A549 cells; type: cell-based; settings: 100 μM FTI-1
HSV-1 [4] = experiment: HSV-1 virus yield from H-ras transformed cells, plaque titration on Vero cells; type: cell-based; settings: MOI 0.5 PFU/cell, harvested 22 hours post infection, inhibitor present for entire infection
PKR phosphorylation = PKR phosphorylation in HSV-1 infected H-ras cells, immunoblot with anti-PKR / anti-phospho-PKR; type: cell-based, murine
Experimental: as §1
H-ras cells were exposed to FTI-1 (100 μM) or PD98059(40 μM) and the phosphorylation state of PKR was assessed using anti-PKR (total PKR) or anti-phospho-PKR (P-PKR) antibodies . […] The difference in phosphorylation of PKR in infected NIH-3T3 cells and in infected MEF cells is shown in the right side of FIG. 10, Panel “B”.

HSV-1 [5] = experiment: HSV-1 viral protein synthesis in PKR+/+ and PKR-/- mouse embryo fibroblasts, Western blot; type: cell-based; settings: MOI 0.5 PFU/cell, 20 hr post-infection
Experimental: The PKR^+/^+ and PKR^−/^− mouse embryo fibroblasts were obtained from Dr. B. R. G. Williams (the Cleveland Clinic Foundation) and were grown in α-MEM containing 10% FBS and antibiotics, as described.
as §1, with “After extensive washing, the blot was exposed to Lumigel detection solution (New England Biolabs) and subjected to autoradiography.” left out
The level of infection by R3616 in PKR^−/^− fibroblasts is equivalent to that seen in cells transformed by Ras, or elements of the Ras pathway. […] Cells were harvested at 20 hr post-infection and analyzed for viral proteins as above. […]

ATF-2 phosphorylation = ATF-2 phosphorylation in H-ras cells, Western blot; type: cell-based, murine; settings: SB203580
Text: as §2

Row | SMILES | production of viral proteins (HSV-1 [1]; FTI-1 50 μM or 100 μM in culture medium, vs control without inhibitor) | HSV-1 infection / infectivity (summary statement) (HSV-1 [1]) | phosphorylation of ERK1/2 (ERK42/44) ([2]; FTI-1 50 μM or 100 μM) | level of viral proteins detected by immunofluorescence (HSV-1 [3]) | virus yield (plaque titration on Vero cells) (HSV-1 [4]) | PKR phosphorylation (PKR phosphorylation; FTI-1 100 μM) | HSV-1 infection (viral protein synthesis) (HSV-1 [5]; PKR+/+ cells) | HSV-1 infection (viral protein synthesis) (HSV-1 [5]; PKR-/- cells) | production of viral proteins (HSV-1 [1]; 40 μM PD98059, vs control) | phosphorylation of ERK1/2 (Erk42/44) ([2]; PD98059 40 μM) | PKR phosphorylation (PKR phosphorylation; PD98059 40 μM) | effect on HSV-1 infection (viral proteins, immunoblot) (HSV-1 [1]; SB203580 at effective doses, H-ras transformed cells) | phosphorylation of ATF-2 (ATF-2 phosphorylation)
1 | CSCC[C@H](NC(=O)[C@H](Cc1ccccc1)NC[C@@H](NC[C@@H](N)CS)C(C)C)C(=O)O [FTI-1] | drastically reduced | effectively block HSV-1 infection | reduced phosphorylation of ERK1/2 | dramatically reduces the level of viral proteins detected | dramatically decreased virus yield | PKR phosphorylation is restored | inhibited HSV-1 infection | no effect |  |  |  |  | 
2 | COc1cccc(-c2cc(=O)c3ccccc3o2)c1N [PD98059] |  | partially blocked HSV-1 infection |  |  | dramatically decreased virus yield |  |  |  | reduced | lack of phosphorylation of ERK1/2 | PKR phosphorylation is restored |  | 
3 | C[S+]([O-])c1ccc(-c2nc(-c3ccncc3)c(-c3ccc(F)cc3)[nH]2)cc1 (centres unmarked) [SB203580] |  | neither SB203580 [11] a specific inhibitor of p38 kinase, or Wortmannin [12] a specific inhibitor of P13-kinase, had any measurable effect |  |  | does not effect virus yield |  |  |  |  |  |  | no effect on HSV-1 infection | lack of phosphorylation of ATF-2
